Entries after “also recorded” stand apart in the source; their conditions may differ.
What was measured:
EboV = system: EboV; parameters: species or system Ebola virus
[1] = target: binding of cleaved EboV GPΔTM to NPC1 membranes (Mus musculus, UniProt O35604)
NPC1 = target: T1, NPC1 (Homo sapiens, UniProt O15118); assay type: binding
T1 construct: expressed in transfected cells; host or cells: CHO/NPC1-1 (CHOhNPC1) cells; 15,000 g membrane pellet
T1 sequence (O15118 23-1278): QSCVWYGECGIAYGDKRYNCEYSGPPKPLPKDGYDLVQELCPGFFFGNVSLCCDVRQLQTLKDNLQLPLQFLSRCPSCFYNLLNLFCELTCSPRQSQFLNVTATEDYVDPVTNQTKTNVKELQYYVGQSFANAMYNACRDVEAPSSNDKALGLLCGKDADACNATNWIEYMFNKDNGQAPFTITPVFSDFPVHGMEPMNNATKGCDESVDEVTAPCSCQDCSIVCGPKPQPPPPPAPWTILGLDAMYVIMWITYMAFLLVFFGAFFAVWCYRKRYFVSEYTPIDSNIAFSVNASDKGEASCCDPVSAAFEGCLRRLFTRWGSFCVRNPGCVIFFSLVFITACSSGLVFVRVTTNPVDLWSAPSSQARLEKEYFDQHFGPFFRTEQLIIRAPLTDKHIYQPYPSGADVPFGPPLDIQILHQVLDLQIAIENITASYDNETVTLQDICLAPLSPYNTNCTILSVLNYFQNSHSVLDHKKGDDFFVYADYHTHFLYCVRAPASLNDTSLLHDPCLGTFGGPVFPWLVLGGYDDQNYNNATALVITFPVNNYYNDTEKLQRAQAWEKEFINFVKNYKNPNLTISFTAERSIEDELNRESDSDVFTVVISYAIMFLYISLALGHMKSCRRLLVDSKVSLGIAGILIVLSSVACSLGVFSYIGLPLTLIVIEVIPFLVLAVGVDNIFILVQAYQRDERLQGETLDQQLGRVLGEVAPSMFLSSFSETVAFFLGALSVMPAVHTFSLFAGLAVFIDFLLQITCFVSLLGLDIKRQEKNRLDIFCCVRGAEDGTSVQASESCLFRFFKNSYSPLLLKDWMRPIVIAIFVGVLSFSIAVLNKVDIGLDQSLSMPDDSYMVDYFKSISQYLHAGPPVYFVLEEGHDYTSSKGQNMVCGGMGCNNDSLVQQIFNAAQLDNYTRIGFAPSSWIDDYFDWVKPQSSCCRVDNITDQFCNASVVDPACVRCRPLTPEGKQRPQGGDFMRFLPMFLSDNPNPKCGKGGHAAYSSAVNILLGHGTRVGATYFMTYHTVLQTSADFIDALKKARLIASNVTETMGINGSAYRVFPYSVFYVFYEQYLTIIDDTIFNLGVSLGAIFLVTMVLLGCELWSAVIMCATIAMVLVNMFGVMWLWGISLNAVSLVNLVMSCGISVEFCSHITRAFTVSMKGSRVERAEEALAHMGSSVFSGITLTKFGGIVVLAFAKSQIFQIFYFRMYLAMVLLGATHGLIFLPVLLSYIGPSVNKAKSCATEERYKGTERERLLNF

[2] = system: VSV particles pseudotyped with EboV Zaire GP; assay type: cell-based, Ebola virus Zaire
[3] = system: VSV particles pseudotyped with VSV G; assay type: cell-based, vesicular stomatitis virus
EBOV Zaire-1995 = assay type: cell-based, Ebola virus Zaire; conditions: 96 h
cathepsin B = cathepsin B (Homo sapiens, UniProt P07858); assay type: biochemical
[4] = system: thermolysin-cleaved VSV EboV GP particles; assay type: cell-based, Ebola virus Zaire
HeLa cells = assay type: cell-based, human
[5] = system: Ebola virus Zaire-Maying a encoding GFP; assay type: cell-based

Chain of binding of cleaved EboV GPΔTM to NPC1 membranes (O35604 23-1277 limits assumed, stated change not applied): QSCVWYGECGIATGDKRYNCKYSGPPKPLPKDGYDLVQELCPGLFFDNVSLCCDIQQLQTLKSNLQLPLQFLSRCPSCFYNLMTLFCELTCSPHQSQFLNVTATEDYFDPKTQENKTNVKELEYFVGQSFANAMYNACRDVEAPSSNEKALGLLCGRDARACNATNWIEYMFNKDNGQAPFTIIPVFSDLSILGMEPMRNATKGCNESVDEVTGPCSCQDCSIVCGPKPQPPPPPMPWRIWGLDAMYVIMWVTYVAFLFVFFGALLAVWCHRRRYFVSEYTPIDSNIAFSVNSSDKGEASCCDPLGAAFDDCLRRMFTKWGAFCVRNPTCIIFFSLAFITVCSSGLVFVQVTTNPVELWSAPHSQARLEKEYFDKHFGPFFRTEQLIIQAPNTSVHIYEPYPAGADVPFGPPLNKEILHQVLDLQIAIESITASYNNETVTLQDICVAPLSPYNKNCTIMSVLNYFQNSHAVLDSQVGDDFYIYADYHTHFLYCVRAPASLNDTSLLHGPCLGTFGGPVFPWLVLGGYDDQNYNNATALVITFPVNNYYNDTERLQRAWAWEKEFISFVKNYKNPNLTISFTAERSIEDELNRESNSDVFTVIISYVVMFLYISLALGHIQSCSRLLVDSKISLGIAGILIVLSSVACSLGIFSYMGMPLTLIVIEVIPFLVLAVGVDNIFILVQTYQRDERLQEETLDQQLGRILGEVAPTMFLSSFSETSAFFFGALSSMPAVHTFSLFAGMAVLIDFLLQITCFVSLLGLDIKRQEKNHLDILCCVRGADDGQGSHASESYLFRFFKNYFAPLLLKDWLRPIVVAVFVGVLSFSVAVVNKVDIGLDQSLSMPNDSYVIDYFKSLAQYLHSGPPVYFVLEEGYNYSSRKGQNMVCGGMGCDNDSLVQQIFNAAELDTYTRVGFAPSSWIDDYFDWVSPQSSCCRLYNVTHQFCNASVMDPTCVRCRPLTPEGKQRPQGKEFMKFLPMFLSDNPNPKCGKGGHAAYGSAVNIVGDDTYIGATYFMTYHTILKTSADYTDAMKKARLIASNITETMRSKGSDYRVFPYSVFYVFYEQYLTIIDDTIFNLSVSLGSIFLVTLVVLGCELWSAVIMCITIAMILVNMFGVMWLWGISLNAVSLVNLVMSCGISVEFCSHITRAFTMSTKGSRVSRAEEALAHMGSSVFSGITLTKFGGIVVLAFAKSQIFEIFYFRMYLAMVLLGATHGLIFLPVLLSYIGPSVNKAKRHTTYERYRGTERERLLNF

## CC/C(=C(\c1ccccc1)c1ccc(OCCN(C)C)cc1)c1ccccc1 [tamoxifen]
EboV
  anti-EboV activity: weak anti-EboV activity

## CCCCc1oc2ccccc2c1C(=O)c1cc(I)c(OCCN(CC)CC)c(I)c1 [amiodarone]
EboV
  anti-EboV activity: weak anti-EboV activity

## CCN(CC)CCO[C@H]1CC[C@@]2(C)C(=CC[C@@H]3[C@@H]2CC[C@]2(C)C(=O)CC[C@@H]32)C1 [U18666A, reference compound]
[1]
  inhibition of binding of cleaved EboV GPΔTM to NPC1 membranes: does not inhibit binding

## C#Cc1ccc(COc2ccc(N=[N+]=[N-])cc2CN2CCN(C(=O)CNC(=O)CC34CC5CC(CC(C5)C3)C4)CC2)cc1 [compound 3.105, 2-((3r,5r,7r)-adamantan-1-yl)-N-(2-(4-(5-azido-2-((4-ethynylbenzyl)oxy)benzyl)piperazin-1-yl)-2-oxoethyl)acetamide]
NPC1
  cross-linking to NPC1: cross-linked
[2]
  inhibition of EboV GP-dependent infection of Vero cells: has anti-EboV activity

## COc1ccc([C@@H]2Sc3ccccc3N(CCN(C)C)C(=O)[C@@H]2OC(C)=O)cc1 [diltiazen]
EboV
  anti-EboV activity: weak anti-EboV activity

## O=C(CC12CC3CC(CC(C3)C1)C2)NCC(=O)N1CCN(Cc2ccccc2)CC1 [3.0, 2-((3r,5r,7r)-adamantan-1-yl)-N-(2-(4-benzylpiperazin-1-yl)-2-oxoethyl)acetamide]
[3]
  inhibition of VSV G-dependent infection of Vero cells: not
[1]
  inhibition of binding of cleaved EboV GPΔTM to NPC1 membranes: inhibited binding
EBOV Zaire-1995
  reduction of EboV growth on Vero cells: > 99%
[2]
  inhibition of EboV GP infection in the screen: more than 80%
  inhibition of EboV GP-dependent infection of Vero cells: inhibits infection
Cathepsin B
  effect on cathepsin B activity: no effect was observed
[4]
  inhibition of infection by thermolysin-treated VSV EboV particles: inhibited infection
HeLa cells
  cholesterol uptake from LE/LY into cells: inhibit cholesterol uptake
  induction of filipin-labelled cytoplasmic vacuoles: developed cytoplasmic vacuoles

## COC(=O)c1ccc(COc2ccccc2CN2CCN(C(=O)CNC(=O)CC34CC5CC(CC(C5)C3)C4)CC2)cc1 [compound 3.48, methyl 4-((2-((4-(2-(2-((3r,5r,7r)-adamantan-1-yl)acetamido)acetyl)piperazin-1-yl)methyl)phenoxy)methyl)benzoate]
[5]
  efficacy as measured by growth of EboV on Vero cells, relative to 3.0: increased
[1]
  inhibition of binding of cleaved EboV GPΔTM to NPC1 membranes: blocked; also recorded: inhibited binding
NPC1
  inhibition of cross-linking of 3.105 to NPC1: inhibited
[2]
  potency as measured by a single cycle of EboV GP-dependent infection, relative to 3.0: increased the potency
Cathepsin B
  effect on cathepsin B activity: no effect was observed
[4]
  inhibition of infection by thermolysin-treated VSV EboV particles: inhibited infection
HeLa cells
  cholesterol uptake from LE/LY into cells: inhibit cholesterol uptake
  induction of filipin-labelled cytoplasmic vacuoles: developed cytoplasmic vacuoles
